Biological target: human NAMPT (Homo sapiens (Human), UniProt P43490)
Assay: NMN fluorescence biochemical assay (human recombinant NAMPT enzyme assay)
In short: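 Activation of recombinant human NAMPT (6 nM) was tested with 2.5 mM ATP, 20 μM PRPP and 150 μM nicotinamide in 50 mM HEPES pH 7.2 for 60 min at ambient temperature. NMN was derivatized with acetophenone/KOH/formic acid and read by fluorescence (355/460 nm) after 40 min.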

Sequence of human NAMPT (P43490 whole entry): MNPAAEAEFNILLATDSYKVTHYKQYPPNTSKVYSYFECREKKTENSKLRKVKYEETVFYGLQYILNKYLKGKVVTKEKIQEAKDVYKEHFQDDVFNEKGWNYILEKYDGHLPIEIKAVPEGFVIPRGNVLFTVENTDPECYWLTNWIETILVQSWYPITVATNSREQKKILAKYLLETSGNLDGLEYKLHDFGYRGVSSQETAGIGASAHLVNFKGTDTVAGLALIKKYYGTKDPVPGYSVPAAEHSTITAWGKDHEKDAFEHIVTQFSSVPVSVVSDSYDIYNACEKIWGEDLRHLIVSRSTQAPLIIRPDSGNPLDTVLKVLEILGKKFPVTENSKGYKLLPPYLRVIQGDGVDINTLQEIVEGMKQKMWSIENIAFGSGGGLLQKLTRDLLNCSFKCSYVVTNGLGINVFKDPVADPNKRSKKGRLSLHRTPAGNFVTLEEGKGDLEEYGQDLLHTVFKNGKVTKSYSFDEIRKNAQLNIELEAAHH

Structure (SMILES)	AC1.4 Human [µM]	EC50 [µM]
CS(=O)(=O)N1CC2CC(C1)C2Cc1ccc(NC(=O)OCc2cnco2)cc1 (centres unmarked) [Compound 434, oxazol-5-ylmethyl (4-((3-(methylsulfonyl)-3-azabicyclo[3.1.1]heptan-6-yl)methyl)phenyl)carbamate]	0.06	2.11
COC(=O)N1CC2CC(C1)C2Cc1ccc(NC(=O)OCc2cnco2)cc1 (centres unmarked) [Compound 435, methyl 6-(4-(((oxazol-5-ylmethoxy)carbonyl)amino)benzyl)-3-azabicyclo[3.1.1]heptane-3-carboxylate]	0.08	7.52
CN(C)C(=O)N1CC2CC(C1)C2Cc1ccc(NC(=O)OCc2cnco2)cc1 (centres unmarked) [Compound 436, oxazol-5-ylmethyl (4-((3-(dimethylcarbamoyl)-3-azabicyclo[3.1.1]heptan-6-yl)methyl)phenyl)carbamate]	0.08	6.04
CC(C)C(=O)N1CC2CC(C1)C2Cc1ccc(NC(=O)OCc2cnco2)cc1 (centres unmarked) [Compound 437, oxazol-5-ylmethyl (4-((3-isobutyryl-3-azabicyclo[3.1.1]heptan-6-yl)methyl)phenyl)carbamate]	0.27	9.67
CC(=O)N1CC2CC(C1)C2Cc1ccc(NC(=O)OCc2cnco2)cc1 (centres unmarked) [Compound 438, oxazol-5-ylmethyl (4-((3-acetyl-3-azabicyclo[3.1.1]heptan-6-yl)methyl)phenyl)carbamate]	0.04	2.7
O=C(Nc1ccc(CC2C3CC2CN(C2COC2)C3)cc1)OCc1cnco1 (centres unmarked) [Compound 439, oxazol-5-ylmethyl (4-((3-(oxetan-3-yl)-3-azabicyclo[3.1.1]heptan-6-yl)methyl)phenyl)carbamate]	1.47	25.6
CN(C)S(=O)(=O)N1CCC(Cc2ccc(NC(=O)OCc3cnco3)cc2)CC12CC2 (centres unmarked) [Compound 440, oxazol-5-ylmethyl (4-((4-(N,N-dimethylsulfamoyl)-4-azaspiro[2.5]octan-7-yl)methyl)phenyl)carbamate]	0.21	3.53
O=C(Nc1ccc(CC2CCN(C3COC3)C3(CC3)C2)cc1)OCc1cnco1 (centres unmarked) [Compound 441, oxazol-5-ylmethyl (4-((4-(oxetan-3-yl)-4-azaspiro[2.5]octan-7-yl)methyl)phenyl)carbamate]	0.17	10.7
CN(C)C(=O)N1CCC(Cc2ccc(NC(=O)OCc3cnco3)cc2)CC12CC2 (centres unmarked) [Compound 442, oxazol-5-ylmethyl (4-((4-(dimethylcarbamoyl)-4-azaspiro[2.5]octan-7-yl)methyl)phenyl)carbamate]	0.12	3.78
COC(=O)N1CCC(Cc2ccc(NC(=O)OCc3cnco3)cc2)CC12CC2 (centres unmarked) [Compound 443, methyl 7-(4-(((oxazol-5-ylmethoxy)carbonyl)amino)benzyl)-4-azaspiro[2.5]octane-4-carboxylate]	0.22	6.45
CC(=O)N1CCC(Cc2ccc(NC(=O)OCc3cnco3)cc2)CC12CC2 (centres unmarked) [Compound 444, oxazol-5-ylmethyl (4-((4-acetyl-4-azaspiro[2.5]octan-7-yl)methyl)phenyl)carbamate]	0.13	6.31
CC(=O)N1CC2CCC(C1)C2c1ccc(NC(=O)OCc2cnco2)cc1 (centres unmarked) [Compound 445, oxazol-5-ylmethyl (4-(3-acetyl-3-azabicyclo[3.2.1]octan-8-yl)phenyl)carbamate]	0.56	33.5
CC(C)OC(=O)N1CCC(Cc2ccc(NC(=O)OCc3cnco3)cc2)CC1 [Compound 446, isopropyl 4-(4-(((oxazol-5-ylmethoxy)carbonyl)amino)benzyl)piperidine-1-carboxylate]	0.73	19.3
CN(C)S(=O)(=O)N1CCC(Cc2ccc(NC(=O)OCc3cnco3)cc2F)CC1 [Compound 447, oxazol-5-ylmethyl (4-((1-(N,N-dimethylsulfamoyl)piperidin-4-yl)methyl)-3-fluorophenyl)carbamate]	0.08	2.31
CS(=O)(=O)N1CCC(Cc2ccc(NC(=O)OCc3cnco3)cc2F)CC1 [Compound 448, oxazol-5-ylmethyl (3-fluoro-4-((1-(methylsulfonyl)piperidin-4-yl)methyl)phenyl)carbamate]	0.13	4.5
COC(=O)N1CCC(Cc2ccc(NC(=O)OCc3cnco3)cc2F)CC1 [Compound 450, methyl 4-(2-fluoro-4-(((oxazol-5-ylmethoxy)carbonyl)amino)benzyl)piperidine-1-carboxylate]	0.13	4.97
CC(=O)N1CCC(Cc2ccc(NC(=O)OCc3cnco3)cc2F)CC1 [Compound 451, oxazol-5-ylmethyl (4-((1-acetylpiperidin-4-yl)methyl)-3-fluorophenyl)carbamate]	0.16	7.79
O=C(Nc1ccc(CC2CCN(C3COC3)CC2)c(F)c1)OCc1cnco1 [Compound 452, oxazol-5-ylmethyl (3-fluoro-4-((1-(oxetan-3-yl)piperidin-4-yl)methyl)phenyl)carbamate]	0.18	13
CS(=O)(=O)N1CCC(Cc2ccc(NC(=O)OCc3cnco3)cc2)C2CC21 (centres unmarked) [Compound 453, oxazol-5-ylmethyl (4-((2-(methylsulfonyl)-2-azabicyclo[4.1.0]heptan-5-yl)methyl)phenyl)carbamate]	0.35	44
CN(C)C(=O)N1CCC(Cc2ccc(NC(=O)OCc3cnco3)cc2)C2CC21 (centres unmarked) [Compound 454, oxazol-5-ylmethyl (4-((2-(dimethylcarbamoyl)-2-azabicyclo[4.1.0]heptan-5-yl)methyl)phenyl)carbamate]	0.14	16.1
O=C(Nc1ccc(CC2CCN(C3COC3)C3CC23)cc1)OCc1cnco1 (centres unmarked) [Compound 455, oxazol-5-ylmethyl (4-((2-(oxetan-3-yl)-2-azabicyclo[4.1.0]heptan-5-yl)methyl)phenyl)carbamate]	0.84	32.4
COC(=O)N1CCC(Cc2ccc(NC(=O)OCc3cnco3)cc2)C2CC21 (centres unmarked) [Compound 456, methyl 5-(4-(((oxazol-5-ylmethoxy)carbonyl)amino)benzyl)-2-azabicyclo[4.1.0]heptane-2-carboxylate]	0.23	17.8
CC(=O)N1CCC(Cc2ccc(NC(=O)OCc3cnco3)cc2)C2CC21 (centres unmarked) [Compound 457, oxazol-5-ylmethyl (4-((2-acetyl-2-azabicyclo[4.1.0]heptan-5-yl)methyl)phenyl)carbamate]	0.250	21.6
O=C(Nc1ccc(CC2CCN(C(=O)N3CCOCC3)CC2)cc1)OCc1cnco1 [Compound 458, oxazol-5-ylmethyl (4-((1-(morpholine-4-carbonyl)piperidin-4-yl)methyl)phenyl)carbamate]	0.13	15.2
O=C(Nc1ccc(CC2CCN(S(=O)(=O)C3CCC3)CC2)cc1)OCc1cnco1 [Compound 459, oxazol-5-ylmethyl (4-((1-(cyclobutylsulfonyl)piperidin-4-yl)methyl)phenyl)carbamate]	0.18	7.06
